Laboratory results: ChEMBL document CHEMBL6096718, “Discovery of Rezatapopt (PC14586), a First-in-Class, Small-Molecule Reactivator of p53 Y220C Mutant in Development” (ACS Med Chem Lett, 2025)

System: Cellular tumor antigen p53 (Homo sapiens), P04637 [Y220C]
Experiment: Binding affinity to recombinant His-tagged p53 Y220C mutant DNA binding domain (94 to 312 residues) (unknown origin) assessed as induction of biotin-labeled consensus DNA binding by measuring […] concentration required to increase DNA binding incubated for 48 mins by TR-FRET assay
Settings: filed as activator

Q: How did the EC150 turn out when `COc1cc(S(C)(=O)=O)ccc1NCC#Cc1cc2c(N[C@@H]3CCN(C)C[C@@H]3F)cccc2n1CC(F)(F)F` (racemic) was run?
A: Its EC150 is 9 nM.

Q: How did the EC150 turn out when `COc1cc(S(C)(=O)=O)ccc1NCC#Cc1cc2c(N[C@@H]3CCN(C)C[C@@H]3F)cccc2n1CC(F)(F)F` was run?
A: The EC150 was 8 nM.

Q: With `COc1cc(S(C)(=O)=O)ccc1NCC#Cc1cc2c(N[C@H]3CCN(C)C[C@H]3F)cccc2n1CC(F)(F)F` as the compound, how does the EC150 read?
A: The EC150 was 20 nM.

Q: `COc1cc(S(C)(=O)=O)ccc1NCC#Cc1cc2c(N[C@@H]3CCN(C)C[C@H]3F)cccc2n1CC(F)(F)F` (racemic) was tested. Which EC150 did it give?
A: The EC150 was 20 nM.
